# From paper PMC10052652 (Molecules, 2023)
# Legend:
# [1] = biological target: T1, acetylcholinesterase (AChE) (Homo sapiens, UniProt P22303); test: biochemical
# Procedure: The enzymatic activity was assessed via a modified colorimetric Ellman′s method. First, 50 µL of Tris-HCl buffer (pH 8), 25µL of a buffer solution of the sample (50 µg/mL), and 25 µL of an acetylcholinesterase (AChE) enzyme solution containing 2.8 U/mL were mixed. A reaction was then initiated via the addition of 125 µL of 3 mM […]. After incubation for 15 min at 25 °C, 25 µL of a solution of iodide acetylthiocholine15 mM was added to a 96-well microplate. […] Inhibition (%) was calculated in the following way: Inhibition (%) = [(A control − A sample)/A control] × 100, where (A sample) is the absorbance of the molecule containing the reaction and (A control) is the absorbance of the reaction control. Tests were carried out in triplicate.
# [2] = biological target: T1, acetylcholinesterase (AChE); assay type: biochemical; conditions: at 100 µM
# [3] = biological target: T2, superoxide dismutase (SOD) (Homo sapiens, UniProt P00441); test: biochemical; conditions: read-out: Anti SOD IC50
# Procedure: Pyrogallol auto-oxidation due to oxygen in the air can be inhibited by an enzyme that is naturally present in the body: superoxide dismutase (SOD). Furthermore, variations in the pyrogallol auto-oxidation rate in the presence of SOD were evaluated. Tests were carried out in triplicate. The objective was to find an inhibitor of the auto-oxidation of pyrogallol in the presence of a SOD enzyme solution. Samples were tested at a concentration of 50 µg/mL, followed by incubation for 4 min at 25 °C. […] The self-oxidation of pyrogallol was evaluated in the absence of the enzyme. For this, 30 µL of pyrogallol was added to 120 µL of tris buffer (in place of the SOD) (pH 8.5), then followed by the same steps of incubating a positive control (without the molecule); this was performed in the presence of 5% of DMSO to evaluate the percentage of SOD inhibition activity on the auto-oxidation of pyrogallol.
# [4] = test system: MCF7 cells; test: Cytotoxic activity, MTT assay, MCF7; assay type: cell-based, human; conditions: Homo sapiens, MCF7, 72 h
# Procedure: Optical density was measured at 540 nm. All tests were established in triplicate.
# [5] = biological target: T3, xanthine oxidase (XOD) (Homo sapiens, UniProt P47989); test: biochemical; conditions: read-out: Anti XOD IC50
# Procedure: Anti-xanthine oxidase activity was assayed spectrophotometrically under aerobic conditions. First, 50 µL (50 µg/mL) of samples were added to 60 µL of phosphate buffer (pH 7.5) and 30 µL of xanthine oxidase enzyme solution (0.01 units/mL in phosphate buffer; pH 7.5). After pre-incubation at 25 °C for 15 min, the reaction was initiated by the addition of 60 µL of xanthine substrate solution (prepared in the same buffer). The assay mixture was incubated at 25 °C for 5 min. […] The assay was performed in triplicate. […] Tests were carried out in triplicate.
# [6] = biological target: T2, superoxide dismutase (SOD); assay type: biochemical; conditions: at 100 µM
# [7] = biological target: T4, α-amylase (Homo sapiens, UniProt P04746); test: Anti-α-amylase activity (starch/DNS)
# T4 sequence (P04746 16-511): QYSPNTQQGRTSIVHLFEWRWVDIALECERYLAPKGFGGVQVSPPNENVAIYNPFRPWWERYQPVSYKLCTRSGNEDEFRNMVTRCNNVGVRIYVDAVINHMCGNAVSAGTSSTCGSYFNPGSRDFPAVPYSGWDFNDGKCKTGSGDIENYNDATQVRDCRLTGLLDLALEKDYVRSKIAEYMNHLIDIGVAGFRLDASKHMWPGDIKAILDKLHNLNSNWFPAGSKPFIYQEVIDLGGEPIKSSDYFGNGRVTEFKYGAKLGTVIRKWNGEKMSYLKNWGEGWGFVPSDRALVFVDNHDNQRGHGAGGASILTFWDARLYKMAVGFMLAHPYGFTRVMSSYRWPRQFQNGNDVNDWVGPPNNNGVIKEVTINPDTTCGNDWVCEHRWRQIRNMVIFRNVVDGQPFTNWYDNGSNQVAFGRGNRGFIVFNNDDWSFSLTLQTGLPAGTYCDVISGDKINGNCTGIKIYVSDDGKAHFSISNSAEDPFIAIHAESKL
# Procedure: The α-amylase inhibitory activity (%) value was defined as the percentage decrease in the maltose production rate over the control. […] After 15 min, this mixture was removed from the water bath and diluted with 900 µL of distilled water. The anti-α-amylase activity was determined by measuring the absorbance at 540 nm. Blank incubations were determined as the absorbance produced by samples where the enzyme was replaced with a buffer solution. […] The IC50 values were calculated from the mean values of the percentage of α--amylase inhibition data, determined in triplicate.
# [8] = DPPH radical scavenging assay
# Procedure: DPPH• (1-1-diphenyl 2-picryl hydrazyl) assay
# This method is based on the spectrophotometric assay using the stable radical, DPPH•, as a reagent. First, 20 µL of each sample (4 mg/mL) was mixed with 180 µL of 0.1 mM DPPH• in methanol, in plates, after an incubation of 25 min in the dark. Absorbance was measured at 517 nm. Ascorbic acid was used as the reference compound. The radical-scavenging activities of molecules, expressed as a percentage inhibition of DPPH•, were calculated according to the following formula: Inhibition (%) = [(A control − A sample)/A control] × 100 where A is the absorbance determined at 517 nm. The absorbance of the solvent and DPPH• radical without the molecule was measured as the control.
# [9] = biological target: T3, xanthine oxidase (XOD); assay type: biochemical; conditions: at 100 µM
# [10] = test system: SKOV-3 cells; test: Cytotoxic activity, MTT assay, SKOV-3; assay type: cell-based, human; conditions: Homo sapiens, SK-OV-3, 72 h, read-out: IC50 SKOV-3, MTT, 72 h
# [11] = test system: HCT116 cells; test: Cytotoxic activity, MTT assay, HCT116; assay type: cell-based, human; conditions: Homo sapiens, HCT-116, 72 h, read-out: IC50 HCT116, MTT, 72 h
# Procedure: (§1) The cancer cell lines used in this study were HCT116 (colorectal carcinoma), IGROV1 (ovarian cancer), OVCAR3 (ovarian cancer), and MCF7 (mammary gland/breast cancer). […] Cell lines were maintained in culture and were incubated at 37 °C in an incubator with 5% CO2 in a humidified atmosphere. All tests were established at 80% of confluence, and viability was estimated with a trypan blue exclusion assay.
# (§2) The cytotoxic activities of molecules against cancer cell lines were evaluated using an MTT assay. The MTT colorimetric assay was performed using 96-well plates. Cells were seeded in a 96-well plate, at a concentration of 10 × 10^3 cells/well for HCT116 and 12 × 10^3 cells/well for MCF7, IGROV1, and OVAR. Adherent cells were dispatched and incubated at 37 °C overnight in a 5% CO2-enriched atmosphere. […] After that, the medium was removed, and cells were treated with 50 µL of 3-(4,5-dimethylthazolk-2-yl)-2,5-diphenyl tetrazolium bromide (MTT) solution (3 mg/mL in PBS) at 37 °C for 20 to 40 min. To dissolve the […], we added 80 µL of 100% DMSO. Optical density was measured at 540 nm. All tests were established in triplicate. […]
# [12] = ABTS radical cation scavenging assay
# Procedure: ABTS (2,2′-azinobis-3-ethylbenzothiazoline-6-sulfonate) assay
# The radical scavenging capacity of antioxidants for the ABTS radical cation was evaluated following this method: ABTS was prepared by adding 7 mM solution of ABTS at pH 7.4 (5 mM NaH2PO4, 5 mM Na2HPO4, and 154 mM NaCl) with 2.5 mM potassium persulfate. The mixture was stored at room temperature for 16 h in the dark before use and prepared […]. Once diluted with persulfate buffer, the absorbance of the mixture yielded an absorbance value of 0.70 ± 0.05 units at 734 nm. Then, 20 µL of each tested sample was mixed with fresh ABTS solution (180 µL), then the absorbance was measured 6 min after the initial mixing. Ascorbic acid was used as a standard. The capacity of free radical scavenging was expressed as a percentage of the inhibition values. The percentage of inhibition is calculated using the same expression employed in the DPPH assay.
# [13] = test system: OVCAR-3 cells; test: Cytotoxic activity, MTT assay, OVCAR-3; assay type: cell-based; conditions: Homo sapiens, OVCAR-3, 72 h, read-out: IC50 OVCAR-3
# Procedure: as §1, §2
# T2 sequence (P00441 whole entry): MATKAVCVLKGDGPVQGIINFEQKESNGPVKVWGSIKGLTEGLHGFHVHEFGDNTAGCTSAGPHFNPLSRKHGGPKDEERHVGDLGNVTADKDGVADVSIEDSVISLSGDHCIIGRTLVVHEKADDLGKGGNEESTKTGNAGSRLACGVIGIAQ
# T3 sequence (P47989 whole entry, species assumed): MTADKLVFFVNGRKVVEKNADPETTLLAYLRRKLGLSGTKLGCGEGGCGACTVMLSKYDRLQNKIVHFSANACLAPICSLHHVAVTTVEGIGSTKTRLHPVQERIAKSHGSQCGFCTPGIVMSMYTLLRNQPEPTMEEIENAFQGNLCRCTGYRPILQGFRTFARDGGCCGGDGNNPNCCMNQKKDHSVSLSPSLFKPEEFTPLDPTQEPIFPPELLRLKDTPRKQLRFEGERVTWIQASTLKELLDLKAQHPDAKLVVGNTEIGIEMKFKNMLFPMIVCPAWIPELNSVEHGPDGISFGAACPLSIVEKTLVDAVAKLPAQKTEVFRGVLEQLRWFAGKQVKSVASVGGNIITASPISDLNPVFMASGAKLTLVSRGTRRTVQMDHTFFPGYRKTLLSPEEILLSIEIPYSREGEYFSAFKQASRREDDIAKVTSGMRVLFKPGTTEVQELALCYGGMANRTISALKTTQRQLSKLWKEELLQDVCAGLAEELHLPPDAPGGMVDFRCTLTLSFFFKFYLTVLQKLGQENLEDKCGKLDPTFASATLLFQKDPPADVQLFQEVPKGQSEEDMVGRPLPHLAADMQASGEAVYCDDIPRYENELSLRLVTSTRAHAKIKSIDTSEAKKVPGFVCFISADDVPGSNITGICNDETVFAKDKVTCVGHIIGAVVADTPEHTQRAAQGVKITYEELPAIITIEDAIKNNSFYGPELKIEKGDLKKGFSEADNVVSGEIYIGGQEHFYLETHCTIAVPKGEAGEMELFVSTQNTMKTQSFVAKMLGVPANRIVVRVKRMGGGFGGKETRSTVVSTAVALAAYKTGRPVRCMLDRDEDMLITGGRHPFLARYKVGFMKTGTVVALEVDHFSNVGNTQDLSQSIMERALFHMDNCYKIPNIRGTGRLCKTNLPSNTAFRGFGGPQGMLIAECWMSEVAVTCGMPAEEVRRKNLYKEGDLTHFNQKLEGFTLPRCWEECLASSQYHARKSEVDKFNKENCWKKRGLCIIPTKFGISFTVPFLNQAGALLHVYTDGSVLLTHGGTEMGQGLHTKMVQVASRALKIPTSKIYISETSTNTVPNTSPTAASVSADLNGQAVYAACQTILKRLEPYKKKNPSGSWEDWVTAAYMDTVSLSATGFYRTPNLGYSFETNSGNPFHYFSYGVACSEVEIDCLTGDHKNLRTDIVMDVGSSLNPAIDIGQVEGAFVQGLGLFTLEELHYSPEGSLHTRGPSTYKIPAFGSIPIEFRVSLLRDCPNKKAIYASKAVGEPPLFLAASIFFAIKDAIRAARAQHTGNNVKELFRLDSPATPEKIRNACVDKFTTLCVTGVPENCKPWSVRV
# T1 sequence (P22303 32-614, species assumed): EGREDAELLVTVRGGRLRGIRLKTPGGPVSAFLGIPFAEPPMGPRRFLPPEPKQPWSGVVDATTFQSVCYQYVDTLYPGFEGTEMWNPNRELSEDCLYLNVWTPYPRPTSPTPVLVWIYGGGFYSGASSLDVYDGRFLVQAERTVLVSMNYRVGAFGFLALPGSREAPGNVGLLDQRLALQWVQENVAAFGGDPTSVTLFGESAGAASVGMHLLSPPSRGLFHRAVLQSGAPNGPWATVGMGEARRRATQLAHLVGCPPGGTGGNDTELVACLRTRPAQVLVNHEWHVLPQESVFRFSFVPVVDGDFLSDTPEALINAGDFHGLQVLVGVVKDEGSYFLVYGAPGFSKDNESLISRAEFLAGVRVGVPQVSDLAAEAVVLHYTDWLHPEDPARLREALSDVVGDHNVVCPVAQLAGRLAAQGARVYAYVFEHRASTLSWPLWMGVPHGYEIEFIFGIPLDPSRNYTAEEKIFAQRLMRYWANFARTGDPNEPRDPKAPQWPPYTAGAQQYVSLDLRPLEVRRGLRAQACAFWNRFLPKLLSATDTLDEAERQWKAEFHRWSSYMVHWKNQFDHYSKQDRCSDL
SMILES,IC50 [1] [µM],Anti ACHE % [2] [%],IC50 [3] [µM],IC50 [4] [µM],IC50 [5] [µM],Anti SOD % [6] [%],IC50 [7] [µM],Anti α-Amylase % ([7]; at 100 µM) [%],IC50 [8] [µM],Anti XOD % [9] [%],IC50 [10] [µM],IC50 [11] [µM],IC50 [12] [µM],IC50 [13] [µM],ABTS Assay % ([12]; at 100 µM) [%]
"COc1ccc(-c2cc(=O)c3c(O)cc(O[C@@H]4O[C@H](CO[C@@H]5O[C@@H](C)[C@H](O)[C@@H](O)[C@H]5O)[C@@H](O)[C@H](O)[C@H]4O)cc3o2)cc1O [Molecule M19, 3′, 5,7-trihydroxy-4′-methoxyflavone 7-rutinoside]",> 100,37.7 ± 4.6,> 50,> 50,> 100,57.8 ± 2.4,3.7 ± 0.3,60.6 ± 4.8,> 100,45.3 ± 3.2,40.1 ± 0.9,> 50,> 50,> 50,–
"CC1OC(Oc2c(-c3cc(O)c(O)c(O)c3)oc3cc(O)cc(O)c3c2=O)C(O)C(O)C1O (stereo not shown) [Molecule M20, myricitrin dihydrate]",> 50,51.8 ± 3.5,> 100,> 50,> 100,42.4 ± 1.1,> 100,–,> 100,30.9 ± 2.5,> 50,> 50,> 100,> 50,20.3 ± 3.2
